Consider 11 compounds from ChEMBL document CHEMBL1201862, “PubChem BioAssay data set” (2004).

Some test systems named below: HCC 2998; CCRF-CEM; SK-MEL-2; SW-620; SN12C; A549; HCT-15; SR; MCF7; NCI/ADR-RES; UO-31; DU-145; UACC-62; IGROV-1; A498; HOP-62; COLO 205; HL-60; SK-MEL-28; Malme-3M.
Test in all cases: NCI anticancer screen, dose series, 48 h

Molecules are shown by their SMILES.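 These data come from cells grown in 96-well plates and exposed to compound for 48 hours at five concentrations. The concentration for 50% growth inhibition is given as GI50.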 Activity calls are given as the source filed them. Rule as the data show it: active = GI50 up to about 1.1 µM and inactive = higher.

Consider `CC(=O)c1ccc(Nc2c3c(nc4ccccc24)CCCC3)cc1`, for which the GI50 is 42.1 µM (inactive) in the experiment with HCC 2998; 15.9 µM (inactive) with CCRF-CEM; 24 µM (inactive) in the experiment on SK-MEL-2; 16.9 µM (inactive) in the experiment on SW-620; 22.9 µM (inactive) with SN12C; 19 µM (inactive) in the experiment on A549. Besides, the GI50 was 13.7 µM with HCT-15; 2.47 µM (inactive) with SR; 18.7 µM (inactive) with MCF7; 10.4 µM (inactive) with NCI/ADR-RES; 5.58 µM (inactive) in the experiment on UO-31; 20 µM (inactive) with DU-145. For the same compound, the GI50 with UACC-62 was 17.1 µM (inactive); in the experiment with IGROV-1, 3.79 µM (inactive); in the experiment with A498, > 31.8 µM (inactive); in the experiment with HOP-62, 10.3 µM (inactive); in the experiment on COLO 205, 11.7 µM (inactive); in the experiment on HL-60, 2.73 µM (inactive). In the experiment on SK-MEL-28, the GI50 was 50.7 µM (inactive).
As to `COc1ccc(/C=C2\CCS(=O)(=O)c3ccccc3C2=O)cc1OC`, the GI50 with HCC 2998 was 14.9 µM (inactive); in the experiment with CCRF-CEM, 28.9 µM (inactive); in the experiment with SK-MEL-2, 35.4 µM (inactive); with SW-620, 38 µM (inactive); with SN12C, 28.2 µM (inactive); with A549, > 100 µM (inactive). Also, the GI50 is 11.9 µM with HCT-15; 43.5 µM (inactive) with SR; 12.2 µM (inactive) in the experiment with MCF7; 28.8 µM (inactive) in the experiment on NCI/ADR-RES; 31 µM (inactive) in the experiment with UO-31; 23.6 µM (inactive) with DU-145. Moreover, the GI50 is 16.7 µM (inactive) in the experiment on UACC-62; 7.91 µM (inactive) with IGROV-1; 33.4 µM (inactive) in the experiment on A498; 38.5 µM (inactive) with HOP-62; 48.8 µM (inactive) in the experiment on COLO 205; 17.4 µM (inactive) with HL-60. In addition, the GI50 in the experiment with SK-MEL-28 was 53.1 µM (inactive).
Take `Cn1c2ccc3cc2c(=S)c2cc(ccc21)OCCOCCOCCOCCOCCOCCO3`: the GI50 with HCC 2998, in the experiment with CCRF-CEM, in the experiment on SK-MEL-2, with SW-620, in the experiment on SN12C and with A549 was > 10 µM (inactive) each time. Also, the GI50 in the experiment on HCT-15 is above 10 µM; with SR, > 10 µM (inactive); with MCF7, > 10 µM (inactive); in the experiment on NCI/ADR-RES, > 10 µM (inactive); with UO-31, > 10 µM (inactive); with DU-145, > 10 µM (inactive). Further, the GI50 in the experiment with IGROV-1, with Malme-3M, in the experiment with A498, with HOP-62, in the experiment on COLO 205 and in the experiment on HL-60 was > 10 µM (inactive) each time. In addition, the GI50 in the experiment with SK-MEL-28 was > 10 µM (inactive).
`CC1=COC(C)(C=C(C#N)C#N)CC1` (centres undefined): the GI50 in the experiment with HCC 2998 was > 100 µM (inactive); with CCRF-CEM, 35.3 µM (inactive); with SW-620, 50.7 µM (inactive); in the experiment on SN12C it was 49.9 µM (inactive); in the experiment on A549, > 100 µM (inactive); in the experiment with HCT-15, above 10 µM. Besides, the GI50 in the experiment on SR is 31 µM (inactive); with MCF7, 36.6 µM (inactive); with NCI/ADR-RES, 48.4 µM (inactive); with UO-31 it was > 100 µM (inactive); with DU-145, > 100 µM (inactive); with UACC-62 it was 57.7 µM (inactive). Besides, the GI50 with IGROV-1 is 88.3 µM (inactive); with Malme-3M, > 100 µM (inactive); in the experiment on A498, 27 µM (inactive); in the experiment on HOP-62 it was > 100 µM (inactive); in the experiment on COLO 205, > 100 µM (inactive); in the experiment with HL-60, 21.1 µM (inactive). Also, the GI50 in the experiment on SK-MEL-28 is 71 µM (inactive).
Consider `O=C(O)C1=NN(c2ccc(S(=O)(=O)O)cc2)C2(C1)C(Cl)C(=O)N2c1nc2ccccc2s1` (centres undefined), for which the GI50 is 18.8 µM (inactive) with HCC 2998; 15.6 µM (inactive) in the experiment with SK-MEL-2; 2.68 µM (inactive) in the experiment with SW-620; 17.8 µM (inactive) in the experiment on SN12C; 16.6 µM (inactive) in the experiment with A549; 20.6 µM with HCT-15. Moreover, the GI50 with SR is 7.82 µM (inactive); in the experiment on MCF7, 14.4 µM (inactive); in the experiment on NCI/ADR-RES, 23.9 µM (inactive); in the experiment on UO-31, 8.3 µM (inactive); in the experiment on DU-145 it was 19.1 µM (inactive); in the experiment on UACC-62 it was 14.4 µM (inactive). In addition, the GI50 was 7.83 µM (inactive) in the experiment on IGROV-1; 20.5 µM (inactive) in the experiment on Malme-3M; 19.1 µM (inactive) in the experiment on A498; 12.5 µM (inactive) with HOP-62; 18.6 µM (inactive) with COLO 205; 16.2 µM (inactive) in the experiment on HL-60. The GI50 in the experiment on SK-MEL-28 was 20.2 µM (inactive).
For `CCOC(C[Se]CC(OCC)OCC)OCC`, the GI50 was > 100 µM (inactive) in the experiment with HCC 2998; 33.4 µM (inactive) with CCRF-CEM; 48.5 µM (inactive) in the experiment on SK-MEL-2; 85.3 µM (inactive) in the experiment with SW-620; 75.5 µM (inactive) in the experiment with A549; 57.9 µM in the experiment with HCT-15. The GI50 was > 100 µM (inactive) with SR; 48.3 µM (inactive) in the experiment on MCF7; 50.9 µM (inactive) in the experiment with NCI/ADR-RES; 38.6 µM (inactive) with UO-31; 37.5 µM (inactive) with DU-145; 28.4 µM (inactive) in the experiment on UACC-62. In addition, the GI50 in the experiment on IGROV-1 is 24.1 µM (inactive); in the experiment on Malme-3M, 61.5 µM (inactive); in the experiment with A498, > 100 µM (inactive); in the experiment with COLO 205, > 100 µM (inactive); with HL-60 it was 16.8 µM (inactive); with SK-MEL-28, 49.4 µM (inactive).
As to `COc1c(O)ccc(C2=Cc3ccc(O)cc3OC2)c1OC`, the GI50 is 21 µM (inactive) with HCC 2998; 4.37 µM (inactive) in the experiment on CCRF-CEM; 23.4 µM (inactive) in the experiment on SK-MEL-2; 26.7 µM (inactive) in the experiment on SW-620; 23 µM (inactive) in the experiment with SN12C; 24.8 µM (inactive) with A549. Besides, the GI50 in the experiment with HCT-15 was 14.1 µM; in the experiment with SR, 2.15 µM (inactive); with MCF7, 32.4 µM (inactive); in the experiment with NCI/ADR-RES it was 14.5 µM (inactive); in the experiment with UO-31 it was 11.6 µM (inactive); in the experiment with DU-145 it was 26.7 µM (inactive). For the same compound, the GI50 in the experiment with UACC-62 was 16.2 µM (inactive); in the experiment with IGROV-1, 25.8 µM (inactive); in the experiment with Malme-3M, 18.9 µM (inactive); with A498 it was 27.9 µM (inactive); with HOP-62, 20.9 µM (inactive); in the experiment on COLO 205 it was 28.2 µM (inactive). Also, the GI50 was 2.82 µM (inactive) with HL-60 and 34.3 µM (inactive) in the experiment with SK-MEL-28.
On to `Nc1ccc(COC(O)CN2CCCCC2)cc1[N+](=O)[O-]` (centres undefined), for which the GI50 with HCC 2998, with CCRF-CEM, in the experiment with SK-MEL-2, in the experiment with SW-620, with SN12C and with A549 was > 100 µM (inactive) each time. In addition, the GI50 in the experiment with HCT-15 is above 100 µM; with SR, > 100 µM (inactive); in the experiment on MCF7, > 100 µM (inactive); in the experiment on NCI/ADR-RES, > 100 µM (inactive); with UO-31 it was > 100 µM (inactive); in the experiment on DU-145, > 100 µM (inactive). Further, the GI50 in the experiment with UACC-62, in the experiment on IGROV-1, with Malme-3M, with A498, in the experiment on COLO 205 and with HL-60 was > 100 µM (inactive) each time. Moreover, the GI50 in the experiment on SK-MEL-28 is > 100 µM (inactive).
In the case of `OCCN(C1=NCCN1)/[N+](=C\c1ccccn1)[CH-]c1ccccn1`, the GI50 is > 100 µM (inactive) in the experiment on HCC 2998; > 100 µM (inactive) in the experiment on CCRF-CEM; > 100 µM (inactive) in the experiment on SW-620; > 100 µM (inactive) with SN12C; > 100 µM (inactive) with A549; above 100 µM with HCT-15. The GI50 in the experiment with SR was 8.87 µM (inactive); in the experiment with MCF7 it was > 100 µM (inactive); in the experiment on NCI/ADR-RES, > 100 µM (inactive); with UO-31 it was > 100 µM (inactive); in the experiment on DU-145, > 100 µM (inactive); with UACC-62, > 100 µM (inactive). Also, the GI50 in the experiment on IGROV-1, in the experiment on Malme-3M, with A498, in the experiment on HOP-62, with COLO 205 and in the experiment with HL-60 was > 100 µM (inactive) in each case. For the same compound, in the experiment on SK-MEL-28, the GI50 was > 100 µM (inactive).
Regarding `C=C(C)C12OC3(c4ccccc4)OC1C1C4OC4(CO)C(O)C4(O)C(=O)C(C)=CC4C1(O3)C(C)C2OC(=O)/C=C/C=C/c1ccccc1` (centres undefined), the GI50 in the experiment with HCC 2998 is < 0.0005 µM (active); with CCRF-CEM, 0.128 µM (active); with SK-MEL-2 it was 0.337 µM (active); in the experiment with SN12C it was 0.112 µM (active); in the experiment on A549, < 0.0005 µM (active); in the experiment with HCT-15, 0.258 µM. Also, the GI50 in the experiment on SR is 0.122 µM (active); with MCF7, 0.222 µM (active); with NCI/ADR-RES it was 0.344 µM (active); in the experiment with UO-31, 0.0702 µM (active); in the experiment on DU-145, 0.215 µM (active); in the experiment with UACC-62, 0.253 µM (active). Besides, the GI50 with IGROV-1 was 0.537 µM (active); in the experiment with Malme-3M it was 0.474 µM (active); with A498, < 0.0005 µM (active); in the experiment with HOP-62, 0.551 µM (active); in the experiment on COLO 205 it was < 0.0005 µM (active); with HL-60, < 0.0005 µM (active). Moreover, in the experiment on SK-MEL-28, the GI50 is 0.33 µM (active).
For `COc1ccc2cc(CNCCCCCCCCNCc3ccc4cc(OC)ccc4c3)ccc2c1`, the GI50 is 1.85 µM (inactive) with HCC 2998; 2.54 µM (inactive) in the experiment on CCRF-CEM; 4.71 µM (inactive) in the experiment on SK-MEL-2; 1.97 µM (inactive) with SW-620; 13.5 µM (inactive) with A549; 2 µM with HCT-15. The GI50 in the experiment with SR was 1.12 µM (active); in the experiment on MCF7 it was 4.27 µM (inactive); in the experiment on NCI/ADR-RES it was 6.65 µM (inactive); in the experiment on UO-31 it was 6.78 µM (inactive); in the experiment with DU-145 it was 6.97 µM (inactive); in the experiment on UACC-62, 2.01 µM (inactive). For the same compound, the GI50 with IGROV-1 was 5.21 µM (inactive); in the experiment with Malme-3M it was 6.85 µM (inactive); in the experiment on A498, 6.38 µM (inactive); in the experiment with HOP-62, 4.97 µM (inactive); in the experiment on COLO 205 it was 2.48 µM (inactive); in the experiment on HL-60, 1.58 µM (inactive). In addition, the GI50 with SK-MEL-28 was 5.78 µM (inactive).
